Our source for the melting point values is a melting point compilation (Tetko et al.; mined from patent text by program, amines drawn as free bases though some values may be those of a salt).

Each structure is given as a SMILES string.

Usually melting point stands for the temperature of the solid-liquid transition. Compound `N=C(N)NCCc1ccc(OCCC2Oc3ccccc3N(Cc3cccc4ccccc34)C2=O)cc1` (configuration not stated) returned a melting point of 75 to 80 °C. The figure for `CN1C(C)(C)CN(CCO)C(=O)C1(C)C` is 77 to 80 °C; for `COc1cc2c(cc1Nc1ncc(Cl)c(Nc3ccc(N4CCOCC4)cc3OC)n1)CCOC(=O)N2C` it is 242 to 245 °C; for `O=[N+]([O-])c1cc(Br)cc(F)c1O` it is 62 °C.

On to `CCCC=Cc1ncn2c1CN(C)C(=O)c1cc(F)ccc1-2`, for which the melting point is 150 to 151 °C.

Consider `CC(C)C1NC(NC(=O)CCC2CCCCC2)C(=O)N(C)c2ccccc21` (configuration not stated), for which the melting point lay within 114 to 115 °C. As for `CCC1=C(C)CN(C(=O)NCC2CCOc3cc(OC)c(S(=O)(=O)NC(=S)NC(C)C)cc32)C1=O` (configuration not stated), the figure is 153 °C; as for `O=C(O)C1=Cc2cc(Cl)c(Oc3ccc(C(=O)O)cc3)cc2OC1C(F)(F)F` (configuration not stated), above 300 °C. Consider `COc1ccc(Oc2ccccc2)cc1NC(=O)c1ccn2c1CSC2c1cccnc1` (configuration not stated), for which the melting point came out at 158 °C. Regarding `COc1cccc(O[C@@H]2COc3ccc(-c4ccc5cc(F)ccc5n4)cc3[C@@H]2O)c1` (relative stereo), the melting point was in the range of 131 to 132 °C.

The compound `CCn1cc(C(=O)O)c(=O)c2cc(F)c(N3CCN(S(=O)(=O)c4ccc(Cl)cc4)CC3)c(F)c21` displayed a melting point of 231 to 233 °C. In turn, `Cc1ccc(Cl)cc1NC(=S)Nc1c(C)nn(C)c1C` came in with a melting point of 176 to 177 °C. As for `CN1CCN(C(c2ccc(Cl)cc2)c2cccc(C=CC(=O)O)c2)CC1` (configuration not stated), the figure is 131 to 141 °C; as for `CCOC(=O)c1ccc(-c2[nH]nc3c2C(=O)c2c(NC(=O)N(NC)NC)cccc2-3)s1`, 252 °C. As for `N#Cc1cc(N)nc(SCc2ccc3ccccc3c2)n1`, the figure is 154 to 155 °C; as for `CCCOc1cccc(C2(c3ccncc3)N=C(N)N(C)C2=O)c1` (configuration not stated), 173 to 175 °C; as for `O=C(O)CCCCc1ccn2cncc2c1`, 158 to 161 °C. The figure for `CC(=NO)C1CC(Cn2ccnc2)(c2ccc(Cl)cc2)N(C)O1` (configuration not stated) is 214 to 216 °C; for `Cc1c(C)c2c(c(C)c1O)SC(c1ccccc1O)O2` (configuration not stated) it is 175 to 176 °C; for `Sc1cc(Cl)nc2ncnn12` it is above 300 °C. `COc1ccc(CCN2CCC(C(=O)c3nc4ccccc4s3)CC2)cc1` registered a melting point of 119 to 120 °C. As for `CCOC(=O)C1=C(N2CCCC2)N=C(C)C(C(C)=O)C1c1cccc([N+](=O)[O-])c1` (configuration not stated), the figure is 130 °C; as for `COc1ccc(C=CC(=O)c2c(OC)cc(OC)cc2OC2OC(CO)C(O)C(O)C2NC(C)=O)cc1` (configuration not stated), 197 to 200 °C; as for `Cc1nc(N)nc(N)c1/C=C/C(C)(C)c1ccc(C(F)(F)F)cc1`, 182 to 185 °C.

With `O=C(c1ccccn1)c1cnn2c(-c3cccc(NC(=O)C4CC4)c3)ccnc12`, the melting point is 214 to 215 °C. In turn, `CC(C)(C)c1cccc(S(=O)(=O)n2c(C(=O)c3ccc(C(=O)O)s3)cc3cc(C(F)(F)F)ccc32)c1` returned a melting point of 217 °C. The figure for `CC(C)(C)c1ccc(C(O)(c2ccc(Cl)cc2)c2ncc[nH]2)cc1` (configuration not stated) is 95 to 110 °C; for `O=C(O)c1ccc2ccc3ccc(C(=O)O)cc3c2c1` it is 390 °C; for `Cc1c(Cl)ccc(N)c1Cl` it is 56 to 57.5 °C.

The compound `COc1ccccc1-n1c(=O)[nH]c2c(C(N)=O)nc(-c3cccc(C(=O)O)c3)nc21` showed a melting point of 348 to 350 °C. The figure for `CCOC(=O)C1Cc2c(OC)cc(Cl)c(OC)c2CO1` (configuration not stated) is 95 °C; for `O=C(O)C(CC(=O)N1CCOCC1)Cc1cccc2ccccc12` (configuration not stated) it is 62 to 66 °C. The figure for `N#Cc1c(Sc2ccccc2)cccc1[N+](=O)[O-]` is 106 to 107 °C; for `O=C(Nc1ccccc1F)O[C@@H]1CN=C(c2ccccc2)O[C@H]1c1ccccc1` (racemic) it is 98 °C.

On to `COc1ccc(C(=O)Nc2cccc(C(=O)O)c2)c2cc(C(=O)c3ccccc3)oc12`, for which the melting point is 262 to 263 °C.

`OC(c1ccc(F)cc1)(c1ccc(F)cc1)C1CCNC1` (configuration not stated) displayed a melting point of 152 to 153 °C. The figure for `N#Cc1onc(-c2ccccc2)c1-c1ccc(S(N)(=O)=O)cc1` is 218 to 219 °C; for `Fc1cccc(CSc2nnc(-c3ccnc(Nc4ccccn4)c3)o2)c1` it is 141 to 142 °C; for `O=S(=O)(c1ccccc1)n1c2ccc(Br)cc2c2cc(Cl)cnc21` it is 242 °C. The figure for `COC(=O)Nc1ccc(NC(=O)CBr)c([N+](=O)[O-])c1` is 160 to 162 °C; for `COc1cc(-c2ccccc2Cl)c(Cl)cc1C(=O)N1Cc2ccc(C(=O)O)n2Cc2ccccc21` it is 209 to 211 °C; for `CN1CCN(Cc2nc3ccccc3[nH]2)CC1` it is 179 to 183 °C. The figure for `CC(C)(n1cncn1)C(O)(Cn1cncn1)c1ccc(Cl)cc1` (configuration not stated) is 114 °C; for `O=C(O)c1c(O)cccc1-n1cccn1` it is 175 to 179 °C. `CN(c1ccccc1-c1ccc2cnc(Nc3ccc(N4CCN(CC(N)=O)CC4)c(F)c3)nn12)S(C)(=O)=O` showed a melting point of 148 °C. In turn, `O=C(Nc1ccc(C(=O)N2C[C@@H]3C[C@@H](O)CN3C(=O)c3ccccc32)cc1)c1ccccc1-c1ccccc1` had a melting point of 176 to 178 °C.

On to `C=C(CN(C)C)C(O)c1ncc2c(c1O)COC2c1ccccc1` (configuration not stated), for which the melting point is 210 to 215 °C. As for `CC(=O)N[C@@H](C)c1ccc(C(=O)O)cc1`, the figure is 186 to 190 °C. `N#Cc1ccc(C(=O)n2ccnc2)cc1` had a melting point of 152 to 154 °C. The figure for `COc1ccc2nc(-n3nc4c(c3O)-c3ccccc3CC4)sc2c1` is 204 to 205 °C. As for `CC(C)c1cccc(C(C)C)c1OC(=O)CCC(=O)O`, the figure is 101 to 102 °C; as for `Cc1nc2cc(NC(=O)c3cc4cc(F)ccc4n3Cc3cccc(F)c3)cnc2s1`, 264 to 265 °C; as for `N#Cc1ccccc1-c1ccc(O)cc1`, 176 to 178 °C. On to `CS(=O)(=O)NN(c1ccc([N+](=O)[O-])cc1N)S(=O)(=O)c1cccc(S(=O)(=O)F)c1`, for which the melting point is 204 to 209 °C.

For `Cc1cccc(-c2[nH]nnc2-c2ccc3c(c2)NC(=O)CO3)n1`, the melting point came to 224 °C.

As to `COc1ccc(N2CCOCC2)c2sc(C#N)nc12`, the melting point was 145 to 147 °C.

The compound `CCCCCCCCCCc1cnc(-c2ccc3c(c2)C(=O)C(CCCCCC)C3)nc1` (configuration not stated) showed a melting point of 87 °C. As for `CC(=O)c1ccc(-c2ccc(Cl)cc2)c([N+](=O)[O-])c1`, the figure is 103 to 105 °C; as for `CON(C)C(=O)[C@H]1CC[C@H](NC(=O)OC(C)(C)C)CC1`, 130 to 140 °C. The figure for `Cc1cc2cc(CN3CCC(CCC(=O)N(C)C)CC3)cnc2cc1NC(=O)c1ccc(-c2ccc(F)cc2)cc1` is 193 to 196 °C. The figure for `CN(C)CCCn1ccc(-c2ccc(F)cc2)c1-c1ccncc1` is 93 to 95 °C; for `CC(=O)Nc1ccc(S(=O)(=O)Nc2nncs2)cc1` it is 214 to 215 °C.

Consider `NCc1ccccc1C1CCN(c2c(F)c(N)c3c(=O)c(C(=O)O)cn(C4CC4)c3c2F)C1` (configuration not stated), for which the melting point lay in the range of 164 to 165 °C. For the compound `CCOC(=O)N[C@@H]1CC=C[C@@H]2CNC[C@H]21` (racemic), the melting point is 120 to 122 °C. Regarding `Cc1nnn(-c2ccc(F)cc2)c1CCl`, the melting point lay within 70 to 71 °C. The figure for `CCCCCCCCCCC1Cc2ccc(C(=O)O)cc2N1` (racemic) is 123 to 125 °C; for `CC(C)(CC12CC3CC(CC(C3)C1)C2)NC=O` it is 87 to 88 °C; for `COc1ccccc1N1C=C(C(Cl)(Cl)Cl)CN(C(Cl)(Cl)Cl)N1` it is 93 to 95 °C. As for `O=[N+]([O-])c1cc(O)ccc1/C=C/c1ccc(O)cc1`, the figure is 237 to 240 °C. In the case of `COc1ccc(-n2c(Br)ccc2-c2ccc(S(N)(=O)=O)cc2)cc1`, the melting point lay in the range of 121 to 123 °C.

The compound `O=C(O)C(Cc1ccccc1)Oc1ccc2cc(-c3ccc(-c4ccccc4)[nH]3)ccc2c1` (configuration not stated) returned a melting point of 176 to 178 °C. `COc1cc(OCn2nnc3ccccc32)c(C=O)cc1-c1cccs1` came in with a melting point of 137 to 138 °C. On to `CC(Oc1ccc(CCNCC(O)COc2ccccc2)cc1)C(N)=O` (configuration not stated), for which the melting point is 117 to 119 °C.

Take `Cc1cc2c(c(C)c1SC#N)CCC(C)(C)O2`: the melting point lay in the range of 96 to 97 °C. Regarding `O=C1CN(c2ccc(I)cc2)S(=O)(=O)N1`, the melting point lay within 191 to 193 °C. As for `CC(CCCc1ccc(F)cc1)c1cc(O)c2c(c1)OC(C)(C)C1=C2CN(CC(=O)NC(N)=O)CC1` (configuration not stated), the figure is 133 to 134 °C. The figure for `CCOCn1cc(F)c(=O)n(C(=O)c2cccc(C(=O)Oc3nc(OC(=O)c4ccc(Cl)cc4Cl)ccc3C#N)c2)c1=O` is 140 to 142 °C; for `CCCCCCCCC(C)(C)c1cc(=O)c2cc(O)ccc2o1` it is 257 °C; for `CCOC(=O)N1Cc2ccccc2C(Oc2ccc(C(F)(F)F)cc2)C1` (configuration not stated) it is 84 °C. As for `CCCCCCCCCCCCCCCC(=O)NC(=O)OCc1nc(C(C)C)c(Sc2cc(Cl)cc(Cl)c2)n1CC`, the figure is 95 to 97 °C.

`Cc1nc(-n2ccnc(C)c2=O)sc1C(=O)NCc1ccccc1` displayed a melting point of 186 to 187 °C. `COC(=O)C1Cc2ccccc2N1C(=O)C(C)(C)CSC(C)=O` (configuration not stated) showed a melting point of 136 to 138 °C. As for `Cc1cc(NC(=O)CC(C)(C)C)c(C)c2c1OC(C)(C)C2c1ccc(C(C)C)cc1` (configuration not stated), the figure is 118 to 119 °C; as for `O=C(O)C=Cc1ccccc1NC(=O)c1ccc(OCCCCc2ccccc2)cc1`, 129 to 131 °C; as for `NCC1Cc2cc(-c3ccccc3)cc(-c3ccccc3Cl)c2O1` (configuration not stated), above 250 °C. `COC(=O)[C@@H]1CCCCCOc2ccc(cc2)C[C@H](NC(=O)OCc2ccccc2)C(=O)N[C@@H](CC(C)C)C(=O)N1`: the melting point lay within 91 to 93 °C. As for `O=C(O)CCCc1cccc(NC(=O)[C@@H](CS)Cc2ccccc2)c1`, the figure is 149 to 152 °C.
